Experimental data taken from patent US10099993B2, “Metabotropic glutamate receptor positive allosteric modulators (PAMS) and uses thereof” (Sanford-Burnham Medical Research Institute, priority 2014, dated 2018).

Assays:
mGlu8 = mGlu8 (Rattus norvegicus (Rat), UniProt P70579); experiment: mGlu8 GIRK thallium flux assay; format: cell-based; conditions: full agonist concentration-response ± 10 μM compound
mGlu1 = mGlu1 (Rattus norvegicus (Rat), UniProt P23385); experiment: mGlu1 calcium assay; format: cell-based; conditions: full agonist concentration-response ± 10 μM compound
mGlu5 = mGlu5 (Rattus norvegicus (Rat), UniProt P31424); experiment: mGlu5 calcium assay; format: cell-based; conditions: full agonist concentration-response ± 10 μM compound
mGlu4 = mGlu4 (Rattus norvegicus (Rat), UniProt P31423); experiment: mGlu4 GIRK thallium flux assay; format: cell-based; conditions: full agonist concentration-response ± 10 μM compound
[1] = In vivo PK in rats, i.v. administration; set-up: species or system rat; conditions: 2 mg/kg; for Cmax / Vd: rat, iv, plasma; for Vd: read-out: Vdss
mGlu3 [2] = target: T1, mGlu3 (Rattus norvegicus (Rat), UniProt P31422); experiment: mGlu3 GIRK thallium flux assay; conditions: for General activity at mGlu3: full agonist concentration-response ± 10 μM compound; for EC50: read-out: mGlu3 PAM EC50, PAM mode, test compound, then EC20 glutamate […] later in the presence of thallium, mean ± SEM; for Emax: read-out: mGlu3 PAM Max;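 for all read-outs here: kinetic fluorescence slope read shortly after thallium plus agonist addition, scaled between vehicle and maximal agonist control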
[3] = In vivo PK in rats, p.o. administration; set-up: species or system rat; conditions: 20 mg/kg; for Plasma: harvested at or near the Tmax; for Kp / Tmax / Cmax: rat, po; for Kp: brain and plasma, read-out: Brain:Plasma ratio; for Tmax / Cmax: plasma
mGlu7 = mGlu7 (Rattus norvegicus (Rat), UniProt P35400); experiment: mGlu7 GIRK thallium flux assay; format: cell-based; conditions: full L-AP4 concentration-response ± 10 μM compound
mGlu6 = mGlu6 (Rattus norvegicus (Rat), UniProt P35349); experiment: mGlu6 GIRK thallium flux assay; format: cell-based; conditions: full agonist concentration-response ± 10 μM compound
[4] = tested on: cocaine-maintained responding in rats; conditions: previously shown (Jin, X. et al. 2010); cited from earlier work
[5] = tested on: food-maintained responding in rats; conditions: previously shown (Jin, X. et al. 2010); cited from earlier work
mGlu3 [6] = target: T1, mGlu3; experiment: TREx293 mGlu3 Gα15 calcium assay; format: cell-based; conditions: presence of an EC20 of glutamate, 20 ng/mL Tet for 20 h
Experimental: In order to generate a tetracycline (Tet)-inducible rat mGlu3 stable cell line to be used for a calcium mobilization assay, TREx293 cells (Invitrogen) were transfected with mouse Gα15-pCMV6 plasmid (Origene) using Fugene6 (Promega). The cells were selected for Gα15 expression with 1 mg/mL G418 in the presence of 10 μg/ml blasticidin to maintain Tet Repressor expression. Two weeks after the selection, polyclonal TREx293 Gα15 cells were obtained. The entire coding sequence of rat mGlu3 was amplified by polymerase chain reaction (PCR) and cloned into the Tet-inducible expression plasmid pcDNA5/TO (Invitrogen). Rat mGlu3-pcDNA5/TO was transfected into TREx293 Gα15 cells and selected for mGlu3 expression with 200 μg/ml hygromycin in the presence of G418 and blasticidin.
For mGlu3 the TREx tetracycline-inducible system (Invitrogen) was utilized. […] In the absence of Tet, no measurable expression of mGlu3 is detected either by Western blot (FIG. 3A) or by functional response to calcium mobilization (FIG. 3B). […] Data were analyzed using nonlinear regression. Data were obtained from three separate experiments performed in triplicate, normalized to the response to 100 μM glutamate in each experiment, and are expressed as the mean±SEM.

mGlu2 = mGlu2 (Rattus norvegicus (Rat), UniProt P31421); experiment: mGlu2 GIRK thallium flux assay; conditions: for General activity at mGlu2: full agonist concentration-response ± 10 μM compound; for EC50: read-out: mGlu2 PAM EC50, PAM mode, test compound, then EC20 glutamate […] later in the presence of thallium, mean ± SEM, at least three experiments; for Emax: read-out: mGlu2 PAM Max;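 for all read-outs here: Cell-based assay, rate of fluorescence rise right after thallium plus agonist addition read on a kinetic imaging plate reader, normalized to vehicle and maximal agonist control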
Sequence of mGlu2 (P31421 19-872): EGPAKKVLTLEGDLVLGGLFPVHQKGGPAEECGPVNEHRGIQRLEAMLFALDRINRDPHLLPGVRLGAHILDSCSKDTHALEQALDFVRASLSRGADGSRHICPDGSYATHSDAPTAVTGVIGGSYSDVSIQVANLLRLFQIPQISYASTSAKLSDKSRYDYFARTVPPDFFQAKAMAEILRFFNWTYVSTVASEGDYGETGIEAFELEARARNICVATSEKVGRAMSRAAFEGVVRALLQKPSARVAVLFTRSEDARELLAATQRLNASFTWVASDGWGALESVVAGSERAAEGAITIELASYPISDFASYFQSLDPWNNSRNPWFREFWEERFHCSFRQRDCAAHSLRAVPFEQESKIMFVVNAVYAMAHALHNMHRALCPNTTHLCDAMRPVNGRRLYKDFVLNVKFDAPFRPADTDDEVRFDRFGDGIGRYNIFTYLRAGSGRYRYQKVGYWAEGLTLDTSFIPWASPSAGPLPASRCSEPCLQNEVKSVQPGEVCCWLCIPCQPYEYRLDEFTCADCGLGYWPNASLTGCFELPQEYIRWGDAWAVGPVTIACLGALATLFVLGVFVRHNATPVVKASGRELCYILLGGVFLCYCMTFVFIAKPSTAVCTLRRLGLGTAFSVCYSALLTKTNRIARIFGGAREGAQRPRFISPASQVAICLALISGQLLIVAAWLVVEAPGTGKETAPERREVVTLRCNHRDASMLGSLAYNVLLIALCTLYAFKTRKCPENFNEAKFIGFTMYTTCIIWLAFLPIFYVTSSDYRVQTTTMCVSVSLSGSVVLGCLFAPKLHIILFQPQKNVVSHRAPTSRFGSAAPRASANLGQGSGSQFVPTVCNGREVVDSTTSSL

Sequence of mGlu1 (P23385 19-1199): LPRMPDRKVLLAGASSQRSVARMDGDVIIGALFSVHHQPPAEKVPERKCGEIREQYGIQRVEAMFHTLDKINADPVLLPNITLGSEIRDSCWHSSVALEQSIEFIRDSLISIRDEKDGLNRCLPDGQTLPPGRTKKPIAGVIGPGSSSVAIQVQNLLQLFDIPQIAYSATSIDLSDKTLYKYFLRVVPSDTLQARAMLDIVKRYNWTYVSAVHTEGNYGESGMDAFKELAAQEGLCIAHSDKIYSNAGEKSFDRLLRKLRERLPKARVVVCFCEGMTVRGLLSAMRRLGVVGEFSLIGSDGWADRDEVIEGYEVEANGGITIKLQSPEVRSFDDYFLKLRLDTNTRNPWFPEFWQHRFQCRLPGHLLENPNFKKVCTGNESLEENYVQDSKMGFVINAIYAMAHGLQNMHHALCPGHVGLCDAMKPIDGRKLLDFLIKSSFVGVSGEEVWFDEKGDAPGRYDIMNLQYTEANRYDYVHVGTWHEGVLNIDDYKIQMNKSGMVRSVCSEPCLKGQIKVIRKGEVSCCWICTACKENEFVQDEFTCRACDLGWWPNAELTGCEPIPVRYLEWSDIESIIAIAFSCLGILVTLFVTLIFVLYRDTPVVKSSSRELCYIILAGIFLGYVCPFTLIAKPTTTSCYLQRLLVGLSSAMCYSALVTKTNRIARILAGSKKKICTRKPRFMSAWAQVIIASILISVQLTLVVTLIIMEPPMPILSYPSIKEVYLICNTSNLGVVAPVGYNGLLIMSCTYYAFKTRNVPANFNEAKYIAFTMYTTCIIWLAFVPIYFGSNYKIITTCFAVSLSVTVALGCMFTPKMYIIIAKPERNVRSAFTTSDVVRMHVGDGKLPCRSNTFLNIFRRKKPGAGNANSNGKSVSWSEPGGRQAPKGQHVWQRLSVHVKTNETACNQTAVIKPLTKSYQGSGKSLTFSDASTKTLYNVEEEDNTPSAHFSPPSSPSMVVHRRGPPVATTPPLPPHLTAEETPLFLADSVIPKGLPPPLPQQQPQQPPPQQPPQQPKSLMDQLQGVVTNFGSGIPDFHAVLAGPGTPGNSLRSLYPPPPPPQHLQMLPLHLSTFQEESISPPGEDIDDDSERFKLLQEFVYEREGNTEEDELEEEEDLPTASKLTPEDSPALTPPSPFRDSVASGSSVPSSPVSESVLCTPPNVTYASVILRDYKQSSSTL
Sequence of mGlu8 (P70579 34-908): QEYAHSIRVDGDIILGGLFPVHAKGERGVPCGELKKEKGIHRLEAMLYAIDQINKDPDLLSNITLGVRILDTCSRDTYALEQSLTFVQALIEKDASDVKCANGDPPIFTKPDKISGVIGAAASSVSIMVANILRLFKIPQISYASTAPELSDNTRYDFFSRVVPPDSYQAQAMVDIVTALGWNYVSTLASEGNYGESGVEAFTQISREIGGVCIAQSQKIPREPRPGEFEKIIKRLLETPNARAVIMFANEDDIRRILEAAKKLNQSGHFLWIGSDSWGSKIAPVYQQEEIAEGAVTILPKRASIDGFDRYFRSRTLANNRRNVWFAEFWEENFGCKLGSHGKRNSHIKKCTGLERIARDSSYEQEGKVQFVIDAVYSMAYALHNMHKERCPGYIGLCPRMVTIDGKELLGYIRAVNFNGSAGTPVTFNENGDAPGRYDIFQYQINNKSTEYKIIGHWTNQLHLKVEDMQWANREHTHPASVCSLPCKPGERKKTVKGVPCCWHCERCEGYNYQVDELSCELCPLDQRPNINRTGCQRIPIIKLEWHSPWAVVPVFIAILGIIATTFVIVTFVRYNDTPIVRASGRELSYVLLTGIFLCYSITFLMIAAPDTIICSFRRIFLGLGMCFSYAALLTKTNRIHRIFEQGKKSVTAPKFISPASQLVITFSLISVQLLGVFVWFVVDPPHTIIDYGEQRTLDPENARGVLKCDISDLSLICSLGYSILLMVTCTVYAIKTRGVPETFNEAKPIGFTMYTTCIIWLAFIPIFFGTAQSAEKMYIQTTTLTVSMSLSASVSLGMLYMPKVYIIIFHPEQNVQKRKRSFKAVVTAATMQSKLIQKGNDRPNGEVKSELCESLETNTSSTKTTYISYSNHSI
Sequence of mGlu4 (P31423 33-912): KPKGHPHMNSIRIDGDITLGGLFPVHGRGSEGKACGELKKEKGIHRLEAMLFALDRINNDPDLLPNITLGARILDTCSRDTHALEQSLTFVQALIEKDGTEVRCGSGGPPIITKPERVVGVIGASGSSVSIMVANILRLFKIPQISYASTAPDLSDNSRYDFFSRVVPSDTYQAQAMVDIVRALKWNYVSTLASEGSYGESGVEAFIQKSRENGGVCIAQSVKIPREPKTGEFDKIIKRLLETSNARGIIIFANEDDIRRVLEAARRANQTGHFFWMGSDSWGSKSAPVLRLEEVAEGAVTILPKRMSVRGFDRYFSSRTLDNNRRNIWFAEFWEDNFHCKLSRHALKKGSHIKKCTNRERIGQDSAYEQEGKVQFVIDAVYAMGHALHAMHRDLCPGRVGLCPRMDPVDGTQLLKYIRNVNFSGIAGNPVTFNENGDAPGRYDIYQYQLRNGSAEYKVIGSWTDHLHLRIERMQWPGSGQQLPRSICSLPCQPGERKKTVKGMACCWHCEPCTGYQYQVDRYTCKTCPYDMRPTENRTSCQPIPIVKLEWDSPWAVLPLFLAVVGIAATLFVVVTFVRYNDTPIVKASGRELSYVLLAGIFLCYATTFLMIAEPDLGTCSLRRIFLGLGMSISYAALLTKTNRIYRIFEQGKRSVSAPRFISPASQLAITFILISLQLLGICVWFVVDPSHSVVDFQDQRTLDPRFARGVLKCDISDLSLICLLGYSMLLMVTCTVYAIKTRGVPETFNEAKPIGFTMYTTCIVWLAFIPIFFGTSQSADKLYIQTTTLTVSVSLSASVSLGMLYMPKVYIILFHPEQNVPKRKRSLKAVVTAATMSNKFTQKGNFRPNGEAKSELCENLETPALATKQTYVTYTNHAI
Sequence of mGlu5 (P31424 21-1203): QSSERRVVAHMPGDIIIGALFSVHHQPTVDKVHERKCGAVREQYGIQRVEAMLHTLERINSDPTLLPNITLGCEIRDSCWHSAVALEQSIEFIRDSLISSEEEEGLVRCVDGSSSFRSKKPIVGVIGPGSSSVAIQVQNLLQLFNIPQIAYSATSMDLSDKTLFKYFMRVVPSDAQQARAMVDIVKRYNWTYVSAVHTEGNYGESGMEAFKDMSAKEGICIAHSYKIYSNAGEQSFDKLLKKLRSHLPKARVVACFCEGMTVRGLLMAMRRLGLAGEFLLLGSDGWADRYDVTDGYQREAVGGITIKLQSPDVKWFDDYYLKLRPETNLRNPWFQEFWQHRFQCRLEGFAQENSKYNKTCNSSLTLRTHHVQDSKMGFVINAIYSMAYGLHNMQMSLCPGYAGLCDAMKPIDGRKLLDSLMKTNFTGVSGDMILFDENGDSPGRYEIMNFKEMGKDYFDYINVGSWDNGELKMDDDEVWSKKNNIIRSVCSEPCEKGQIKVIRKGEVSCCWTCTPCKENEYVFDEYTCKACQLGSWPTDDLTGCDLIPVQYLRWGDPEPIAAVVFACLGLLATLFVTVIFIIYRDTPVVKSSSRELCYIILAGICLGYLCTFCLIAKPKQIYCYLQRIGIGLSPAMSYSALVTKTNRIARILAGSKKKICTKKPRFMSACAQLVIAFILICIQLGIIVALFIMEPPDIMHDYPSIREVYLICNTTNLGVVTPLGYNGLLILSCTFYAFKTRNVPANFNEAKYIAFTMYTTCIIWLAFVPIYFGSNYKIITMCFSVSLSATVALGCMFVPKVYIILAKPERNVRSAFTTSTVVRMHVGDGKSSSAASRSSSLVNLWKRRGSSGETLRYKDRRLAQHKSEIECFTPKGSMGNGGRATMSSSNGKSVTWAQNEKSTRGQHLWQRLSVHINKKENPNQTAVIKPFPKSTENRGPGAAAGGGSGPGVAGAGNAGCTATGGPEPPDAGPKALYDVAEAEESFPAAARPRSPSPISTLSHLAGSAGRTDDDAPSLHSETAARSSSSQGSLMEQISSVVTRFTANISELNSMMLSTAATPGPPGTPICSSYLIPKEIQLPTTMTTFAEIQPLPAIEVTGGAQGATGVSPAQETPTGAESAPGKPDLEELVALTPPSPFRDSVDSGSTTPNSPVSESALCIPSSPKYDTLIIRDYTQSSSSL

SMILES	General activity at mGlu8 (mGlu8)	General activity at mGlu1 (mGlu1)	General activity at mGlu5 (mGlu5)	General activity at mGlu4 (mGlu4)	General activity at mGlu7 (mGlu7)	General activity at mGlu6 (mGlu6)	EC50 (mGlu3 [2]) [µM]	Emax (mGlu3 [2]) [%]	EC50 (mGlu2) [µM]	Emax (mGlu2) [%]	also measured
Cc1c(OCCCCOc2ccc(C(=O)O)cc2)ccc(C(=O)CC(C)C)c1O [Compound 20, 4-(4-(3-Hydroxy-2-methyl-4-(3-methylbutanoyl)phenoxy)butoxy)benzoic acid]	inactive^b	inactive^b	inactive^b	inactive^b	inactive^b	inactive^b					AUC(0→t) [1]: 231.7 ± 42.12 (μmol/L)*min; Cmax [1]: 5 ± 0.6 µM; Vd [1]: 0.81 ± 0.14 L/kg; General activity at mGlu3 (mGlu3 [2]): PAM; AUC(0→t) [3]: 544.8 ± 75.4 (μmol/L) min; F, oral bioavailability [3]: 23.5%; Plasma [3]: 5.29 ± 1.98 µM; Kp [3]: 0.2 ± 0.03; Tmax [3]: 2.25 h; Cmax [3]: 2.57 ± 0.45 µM
COc1ccc(C(=O)O)cc1OCCCCOc1ccc(C(=O)CC(C)C)c(O)c1C [Compound 50, 3-{4-[3-Hydroxy-2-methyl-4-(3-methylbutanoyl)phenoxy]butoxy}-4-methoxybenzoic acid]											AUC(0→t) [1]: 77.2 ± 8.0 (μmol/L)*min; Cmax [1]: 2.15 ± 0.14 µM; Vd [1]: 2.87 ± 0.6 L/kg; AUC(0→t) [3]: 466.2 ± 105.2 (μmol/L) min; F, oral bioavailability [3]: 60.4%; Tmax [3]: 1.6 h; Cmax [3]: 1.05 µM
Cc1c(OCc2cccc(-c3ccc(C(=O)O)cc3)c2)cc2c(c1C)C(=O)C(C1CCCC1)C2 (centres unmarked) [BINA]											cocaine-maintained responding [4]: decreased only cocaine-maintained responding; food-maintained responding [5]: no effect on food-maintained responding; activity in TREx293 mGlu3 Gα15 calcium assay (mGlu3 [6]): inactive
Cc1c(OCCCCOc2ccc(C(=O)O)c(Cl)c2)ccc(C(=O)CC2CCCC2)c1O [Compound 33, 2-Chloro-4-(4-(4-(2-cyclopentylacetyl)-3-hydroxy-2-methylphenoxy)butoxy)benzoic acid]	inactive^b	inactive^b	inactive^b	inactive^b	inactive^b	inactive^b					General activity at mGlu2 (mGlu2): Ago-PAM
Cc1c(OCCCCOc2ccc(F)c(C(=O)O)c2)ccc(C(=O)CC(C)C)c1O [Compound 36, 2-Fluoro-5-(4-(3-hydroxy-2-methyl-4-(3-methylbutanoyl)phenoxy)butoxy)benzoic acid]											AUC(0→t) [1]: 123.7 ± 7.7 (μmol/L)*min; Cmax [1]: 3.52 ± 0.13 µM; Vd [1]: 0.89 ± 0.03 L/kg; AUC(0→t) [3]: 720.5 ± 283.4 (μmol/L) min; F, oral bioavailability [3]: 58.2%; Plasma [3]: 4.23 ± 1.19 µM; Kp [3]: 0.06 ± 0.03; Tmax [3]: 0.5 h; Cmax [3]: 12.5 µM
CCCC(=O)c1ccc(OCCCCOc2ccc(C(=O)O)cc2OC)c(C)c1O [compound 67]	inactive^b	Antagonist	inactive^b	Antagonist	inactive^b	inactive^b					
Cc1c(OCCCCOc2cccc(C(=O)O)c2)ccc(C(=O)CC2CCCC2)c1O [Compound 25, 3-(4-(4-(2-Cyclopentylacetyl)-3-hydroxy-2-methylphenoxy)butoxy)benzoic acid]	inactive^b	inactive^b	inactive^b	inactive^b	inactive^b	inactive^b					General activity at mGlu3 (mGlu3 [2]): PAM; Emin, minimal response of the concentration-response of agonist (mGlu3 [2]; mGlu3, 10 μM compound): Emin = 6%; General activity at mGlu2 (mGlu2): Ago-PAM; Emin, minimal response of the concentration-response of agonist (mGlu2; mGlu2, 10 μM compound): Emin = 45%
Cc1c(OCc2cccc(-c3cccc(C#N)c3)c2)ccc(C(=O)CC(C)(C)C)c1O [compound 151, 3′-((4-(3,3-Dimethylbutanoyl)-3-hydroxy-2-methylphenoxy)methyl)-[1,1′-biphenyl]-3-carbonitrile]							> 10	35.5 ± 3.8	> 10	50.2 ± 7.4	
COc1ccc(C(=O)N2CCNCC2)cc1OCCCCOc1ccc(C(=O)CC(C)(C)C)c(O)c1C [compound 105, 1-(2-Hydroxy-4-(4-(2-methoxy-5-(piperazine-1-carbonyl)phenoxy)butoxy)-3-methylphenyl)-3,3-dimethylbutan-1-one]							> 10	49.7 ± 3.9	> 10	67.4 ± 1.9	
Cc1c(OCc2cccc(-c3cccc(-c4nn[nH]n4)c3)c2)ccc(C(=O)CC(C)(C)C)c1O [compound 152, 1-(4-((3′-(2H-Tetrazol-5-yl)-[1,1′-biphenyl]-3-yl)methoxy)-2-hydroxy-3-methylphenyl)-3,3-dimethylbutan-1-one]								98.9 ± 3.7		103 ± 1.8	
Cc1c(OCc2cccc(-c3ccc(O)c(C(=O)O)c3)c2)ccc(C(=O)CC(C)(C)C)c1O [compound 144, 3′-((4-(3,3-dimethylbutanoyl)-3-hydroxy-2-methylphenoxy)methyl)-4-hydroxy-[1,1′-biphenyl]-3-carboxylic acid]							0.701 ± 0.176	46.9 ± 5.6	0.232 ± 0.016	59.6 ± 4	
Cc1c(OCc2cccc(-c3cnc(C(=O)O)cn3)c2)ccc(C(=O)CC(C)(C)C)c1O [Compound 181, 5-(3-((4-(3,3-Dimethylbutanoyl)-3-hydroxy-2-methylphenoxy)methyl)phenyl)pyrazine-2-carboxylic acid]							4.28 ± 0.064	106 ± 2.1	2.134 ± 0.008	105 ± 3.4	
Cc1c(OCc2ncc(-c3cccc(C(=O)O)c3)s2)ccc(C(=O)CC(C)(C)C)c1O [compound 161, 3-(2-((4-(3,3-Dimethylbutanoyl)-3-hydroxy-2-methylphenoxy)methyl)thiazol-5-yl)benzoic acid]							3.19 ± 0.068	114 ± 3.9	1.878 ± 0.017	98.2 ± 5.2	
